This note sets out measurements from US6600037B1, “4,5-disubstituted-2-aminopyrimidines” (Celltech R & D Limited, priority 1999, dated 2003).

The structures appear in SMILES notation.

Regarding `CC(C)(N)c1ccc(-c2nc(Nc3ccc(-n4ccnc4)cc3)ncc2Cl)cc1` [Example 3, 4-[4-(1-Amino-1-methylethyl)phenyl]-5-chloro-N-[4-(1-imidazolyl)phenyl]pyrimidine-2-amine], the melting point (in general, the temperature of the solid-liquid transition) was in the range of 199 to 201 °C.

As to `CC(C)(N)c1ccc(-c2nc(Nc3ccc(CCO)cc3)ncc2Cl)cc1` [Example 1, 4-[4-(1-Amino-1-methylethyl)phenyl]-5-chloro-N-[4-(2-hydroxyethyl)phenyl]pyrimidine-2-amine], the melting point lay in the range of 162 to 163 °C.

The molecule `C=CCOC(=O)NC(C)(C)c1ccc(-c2nc(Nc3ccc(CCn4ccnc4)cc3)ncc2Cl)cc1F` [Example 7, 4-[4-(1-Allyloxycarbonylamino-1-methylethyl)-3-fluorophenyl]-5-chloro-N-[4-(2-(imidazol-1-yl)ethyl)phenyl]pyrimidine-2-amine] registered a melting point of 88 °C.

Molecule `CC(C)(N)c1ccc(-c2nc(Nc3ccc(CCO)cc3)ncc2Cl)cc1F` [Example 4, 4-[4-(1-Amino-1-methylethyl)-3-fluorophenyl]-5-chloro-N-[4-(2-hydroxyethyl)phenyl]pyrimidine-2-amine] yielded a melting point of 172 to 176 °C.

On to `C=CCOC(=O)NC(C)(C)c1ccc(-c2nc(Nc3ccc(CCn4ccnc4)cc3)ncc2Cl)cc1` [Example 5, 4-[4-(1-Allyloxycarbonylamino-1-methylethyl)phenyl]-5-chloro-N-[4-(2-(imidazol-1-yl)ethyl)phenyl]pyrimidine-2-amine], for which the melting point is 72 to 78 °C.

`CC(C)(N)c1ccc(-c2nc(Nc3ccc(CCn4ccnc4)cc3)ncc2Cl)cc1F` [Example 10, 4-[4-(1-Amino-1-methylethyl)-3-fluorophenyl]-5-chloro-N-[4-(2-(imidazol-1-yl)ethyl)phenyl]pyrimidine 2-amine] registered a melting point of 112 to 120 °C.

Take `CC(C)(N)c1ccc(-c2nc(Nc3cccc(CCO)c3)ncc2Cl)cc1` [Example 2, 4-[4-(1-Amino-1-methylethyl)phenyl]-5-chloro-N-[3-(2-hydroxyethyl)phenyl]pyrimidine-2-amine]: the melting point fell in the range of 184 to 185 °C.

Consider `CC(C)(N)c1ccc(-c2nc(Nc3ccc(CCN4CCOCC4)cc3)ncc2Cl)cc1` [Example 9, 4-[4-(1-Amino-1-methylethyl)phenyl]-5-chloro-N-[4-(2-morpholinoethyl)phenyl]pyrimidine-2-amine], for which the melting point fell in the range of 166 to 173 °C.
